Measurements from patent US20120065165A1, “COMPOSITIONS AND METHODS OF TREATING ENDOTHELIAL DISORDERS” (ARGINETIX, INC, priority 2008, published 2012).

Tests used:
aged Fisher rats = test: Vascular stiffness by pulse wave velocity (PWV) in Fisher rats; format: in vivo, rat
Method: When the heart contracts it generates a pulse, or energy wave, that travels through the circulatory system. […] PWV was determined in aged (22-26 months) Fisher rats, treated with ABH as described in Example 1. […] PWV was measured before and after 28 days of treatment with ABH (6 mg/kg) (See FIG. 5A). ABH improved vascular function in aortic rings tested in organ chambers (See FIG. 5B), while an endothelial-independent NO donor, SNP had no effect (C). *p<0.01 vs. young and #p<0.05 vs. old pre-treated, (n=3-8). […] This affect was not observed in untreated aged rats. There was a small but statistically significant increase in vascular stiffness in young control rats over the 28 days of the experiment. This change however was not observed in rats that were treated with ABH.

diabetic ZDF rats = test: Oral ABH in type 2 diabetic ZDF rats: vascular and erectile function (Example 7); format: in vivo, rat
Text: The effects of ABH in the ZDF rat model of type 2 diabetes after systemic in vivo administration is investigated as described below. […] Given the similarities in indicators of vascular dysfunction between aged rats and diabetic animals and humans with respect to elevated arginase and decreased NO the prediction is that orally-administered ABH will result in similar improvements in vascular and erectile function in the type 2 diabetic ZDF rats. […] ABH is hypothesized to inhibit pathologically elevated vascular arginase, restore normal eNOS coupling, and enhance both erectile and vascular endothelial function. […]
ZDF rats are made diabetic by feeding a high-fat diet, while a cohort of ZLC rats are fed a normal diet. […] Aortic PWV is calculated as the separation distance divided by the difference in arrival times of the rat's pulse, with respect to the R-peak of the electrocardiogram (ECG), reported in meters per second (m/s).
At the end of the 4 week treatment period, erectile function is determined in vivo. […] Erectile response to electrical field stimulation (neurogenic response) is measured by catheterizing the right crus, and connecting it to a pressure transducer to permit continuous measurement of intracavernosal pressure (ICP). […] The erectile response (ICP) to injections of […] is determined. ICP is monitored during ACh administration, and until it returns to baseline. […]

rat aortic rings = test: Vasorelaxation of aortic rings in organ chambers after 28 days oral ABH; format: in vivo
Method: To investigate whether these changes in vascular stiffness could be related to specific measures of endothelial function, rats were euthanized following treatment, and the thoracic aortas dissected and placed in organ chambers as previously described (White, et al., 2006 Hypertension 47: 245-251). Rat aortic rings were pre-constricted using phenylephrine (1 μM), and vasorelaxant response to the endothelial-dependent (NO mediated) vasodilator acetylcholine (ACh), administered at 1 μM to 10 μM, was determined. […] ABH had no effect on vascular endothelial relaxation in young rats.

arginase II = molecular target: T1, arginase II (Homo sapiens, UniProt P78540); conditions: cited from earlier work
T1 sequence (P78540 23-354): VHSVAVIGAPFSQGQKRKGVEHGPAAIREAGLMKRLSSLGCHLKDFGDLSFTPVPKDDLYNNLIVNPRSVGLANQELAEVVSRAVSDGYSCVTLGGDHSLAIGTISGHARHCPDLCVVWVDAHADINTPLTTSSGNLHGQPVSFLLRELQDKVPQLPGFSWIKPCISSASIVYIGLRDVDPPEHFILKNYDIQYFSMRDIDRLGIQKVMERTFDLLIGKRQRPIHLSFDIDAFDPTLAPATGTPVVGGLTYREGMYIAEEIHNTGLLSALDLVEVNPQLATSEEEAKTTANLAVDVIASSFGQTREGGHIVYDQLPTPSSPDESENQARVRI

arginase I = conditions: tissue extracts from diabetic corpus cavernosa; cited from earlier work

SMILES: N[C@@H](CCCCB(O)O)C(=O)O [ABH, 2(S)-Amino-6-boronohexanoic acid]
- vascular stiffness (pulse wave velocity, PWV) (aged Fisher rats; aged (22-26 months) rats, ABH 6 mg/kg 28 days): marked decrease in vascular stiffness
- increase in vascular stiffness over the 28 days of the experiment (aged Fisher rats; young rats, ABH treated vs young control rats): not observed
- vascular arginase activity and vascular ROS concentration (diabetic ZDF rats; ABH orally four weeks, vs untreated diabetic ZDF rats): significant decreases
- in vivo erectile function, pulse wave velocity and ex vivo vasorelaxation (diabetic ZDF rats; ABH orally in drinking water four weeks, vs untreated ZDF rats): significant improvements
- responses to the endothelial-independent NO donor SNP in aortic rings (rat aortic rings; after 28 days oral ABH): not affected
- vascular relaxation to acetylcholine (ACh) in aortic rings (rat aortic rings; aged rats, 28 days oral ABH, rings pre-constricted with phenylephrine 1 μM): substantially improved
- vascular endothelial relaxation in aortic rings (rat aortic rings; young rats): no effect
- potency as inhibitor of arginase II (arginase II): most potent inhibitor
- levels of cGMP (arginase I): increase levels of cGMP
